Test results from article PMC10935199, “Rosmarinic Acid Present in Lepechinia floribunda and Lepechinia meyenii as a Potent Inhibitor of the Adenylyl Cyclase gNC1 from Giardia lamblia” (Plants, 2024).

Biological target: T1, adenylyl cyclase gNC1 (Giardia nucleotidyl cyclase 1)
T1 construct: catalytic domain of gNC1 (construct gNC1-301)
Assay: adenylyl cyclase assay on enriched gNC1-301, cAMP by radiobinding protein assay; ATP kinetics
Type: biochemical, Giardia intestinalis

O=C(/C=C/c1ccc(O)c(O)c1)O[C@H](Cc1ccc(O)c(O)c1)C(=O)O [compound 3, rosmarinic acid]
IC50: 10.1 ± 1.3 µM
